Measured values as given in the supplement of paper PMC10307832.

What was measured:
Test in all cases: relative viability (nuclei count vs DMSO), 5 days (fraction); higher = more cells survive
Idelalisib + Lapatinib = compound: CC[C@H](Nc1ncnc2[nH]cnc12)c1nc2cccc(F)c2c(=O)n1-c1ccccc1 [Idelalisib] + CS(=O)(=O)CCNCc1ccc(-c2ccc3ncnc(Nc4ccc(OCc5cccc(F)c5)c(Cl)c4)c3c2)o1 [Lapatinib] (partner 2 µM)
Outline: (§1)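 One day after seeding in 1536-well plates, lung cancer cell lines were dosed by pin tool. Dosing was either single-drug or a fixed anchor-drug dose plus five library-drug doses (not always all listed) in √10 steps. After 5 days, nuclei were stained in one fix-and-stain step and counted on 4× images, and relative viability is the nuclei count of treated wells over that of vehicle wells, given as the median of duplicate plates.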

Idelalisib + Vorinostat = compound: CC[C@H](Nc1ncnc2[nH]cnc12)c1nc2cccc(F)c2c(=O)n1-c1ccccc1 [Idelalisib] + O=C(CCCCCCC(=O)Nc1ccccc1)NO [Vorinostat] (partner 1 µM)
Outline: as §1

Pemetrexed + Lapatinib = compound: Nc1nc2[nH]cc(CCc3ccc(C(=O)N[C@@H](CCC(=O)O)C(=O)O)cc3)c2c(=O)[nH]1 [Pemetrexed] + CS(=O)(=O)CCNCc1ccc(-c2ccc3ncnc(Nc4ccc(OCc5cccc(F)c5)c(Cl)c4)c3c2)o1 [Lapatinib] (partner 2 µM)
Outline: as §1

Pemetrexed + Linsitinib = compound: Nc1nc2[nH]cc(CCc3ccc(C(=O)N[C@@H](CCC(=O)O)C(=O)O)cc3)c2c(=O)[nH]1 [Pemetrexed] + C[C@]1(O)C[C@@H](c2nc(-c3ccc4ccc(-c5ccccc5)nc4c3)c3c(N)nccn32)C1 [Linsitinib] (partner 1 µM)
Outline: as §1

Cell Line | relative viability (Idelalisib + Lapatinib; first compound 0.04 µM) | relative viability (Idelalisib + Lapatinib; first compound 0.1265 µM) | relative viability (Idelalisib + Lapatinib; first compound 0.4 µM) | relative viability (Idelalisib + Lapatinib; first compound 1.265 µM) | relative viability (Idelalisib + Lapatinib; first compound 4 µM) | relative viability (Idelalisib + Vorinostat; first compound 0.04 µM) | relative viability (Idelalisib + Vorinostat; first compound 0.1265 µM) | relative viability (Idelalisib + Vorinostat; first compound 0.4 µM) | relative viability (Idelalisib + Vorinostat; first compound 1.265 µM) | relative viability (Idelalisib + Vorinostat; first compound 4 µM) | relative viability (Pemetrexed + Lapatinib; first compound 0.002 µM) | relative viability (Pemetrexed + Lapatinib; first compound 0.006325 µM) | relative viability (Pemetrexed + Lapatinib; first compound 0.02 µM) | relative viability (Pemetrexed + Lapatinib; first compound 0.06325 µM) | relative viability (Pemetrexed + Lapatinib; first compound 0.2 µM) | relative viability (Pemetrexed + Linsitinib; first compound 0.002 µM) | relative viability (Pemetrexed + Linsitinib; first compound 0.006325 µM) | relative viability (Pemetrexed + Linsitinib; first compound 0.02 µM) | relative viability (Pemetrexed + Linsitinib; first compound 0.06325 µM) | relative viability (Pemetrexed + Linsitinib; first compound 0.2 µM)
LOU-NH91 | 0.82 | 0.737 | 0.67 | 0.725 | 0.75 | 0.998 | 0.899 | 0.794 | 0.726 | 0.91 | 0.799 | 0.792 | 0.734 | 0.58 | 0.514 | 0.888 | 0.852 | 0.987 | 0.688 | 0.598
NCI-H2009 | 0.944 | 1.04 | 0.883 | 0.572 | 0.93 | 0.751 | 0.751 | 0.663 | 0.688 | 0.72 | 0.745 | 0.871 | 0.999 | 0.905 | 0.915 | 0.979 | 1.1 | 1.3 | 1.17 | 1.11
NCI-H358 | 0.468 | 0.469 | 0.37 | 0.488 | 0.498 | 0.643 | 0.63 | 0.588 | 0.567 | 0.593 | 0.4 | 0.4 | 0.441 | 0.311 | 0.276 | 0.641 | 0.666 | 0.514 | 0.261 | 0.282
NCI-H2126 | 0.808 | 0.785 | 0.634 | 0.764 | 0.728 | 0.932 | 0.865 | 0.464 | 0.861 | 0.671 | 0.75 | 0.747 | 0.789 | 0.747 | 0.739 | 0.696 | 0.686 | 0.718 | 0.692 | 0.729
NCI-H1437 | 0.764 | 0.909 | 0.734 | 0.929 | 0.672 | 0.902 | 0.932 | 0.895 | 0.964 | 0.903 | 0.364 | 0.777 | 0.799 | 0.463 | 0.232 | 0.898 | 0.965 | 0.967 | 0.49 | 0.252
SK-LU-1 | 0.851 | 0.866 | 0.617 | 0.998 | 0.661 | 0.739 | 0.735 | 0.645 | 0.813 | 0.768 | 0.772 | 0.853 | 0.96 | 0.804 | 0.695 | 1.01 | 1.03 | 1.15 | 0.951 | 0.968
NCI-H838 | 0.994 | 1.12 | 0.707 | 0.938 | 0.767 | 0.752 | 0.731 | 0.68 | 0.716 | 0.618 | 0.904 | 0.93 | 1.35 | 0.856 | 0.329 | 0.97 | 0.915 | 1.21 | 0.791 | 0.309
NCI-H1755 | 1.11 | 0.999 | 0.966 | 1.06 | 0.97 | 0.884 | 0.748 | 0.751 | 0.634 | 0.723 | 0.808 | 1 | 1.03 | 1.04 | 0.894 | 0.883 | 0.966 | 1.02 | 0.988 | 0.951
NCI-H2228 | 1.21 | 1.14 | 0.875 | 1.23 | 1.03 | 0.812 | 0.53 | 0.482 | 0.588 | 0.613 | 0.928 | 0.854 | 1.4 | 0.784 | 0.379 | 0.708 | 0.472 | 0.906 | 0.553 | 0.425
NCI-H1915 | 1.06 | 1 | 0.96 | 1.11 | 0.922 | 0.567 | 0.534 | 0.498 | 0.503 | 0.448 | 0.945 | 0.988 | 1.1 | 0.987 | 0.971 | 1.11 | 1.08 | 1.13 | 1.11 | 1.07
NCI-H2347 | 0.942 | 0.917 | 0.84 | 1.01 | 0.969 | 0.639 | 0.572 | 0.511 | 0.624 | 0.403 | 0.658 | 0.954 | 0.904 | 0.867 | 0.565 | 0.874 | 0.932 | 0.938 | 0.716 | 0.521
HARA | 0.891 | 0.982 | 0.651 | 0.844 | 0.656 | 0.453 | 0.504 | 0.473 | 0.574 | 0.39 | 0.681 | 0.747 | 1.01 | 0.674 | 0.365 | 0.876 | 0.969 | 0.922 | 0.822 | 0.292
NCI-H2085 | 0.744 | 0.757 | 0.687 | 0.723 | 0.503 | 0.794 | 0.788 | 0.702 | 0.614 | 0.484 | 0.717 | 0.692 | 0.88 | 0.801 | 0.768 | 0.872 | 0.828 | 0.881 | 0.942 | 0.97
NCI-H650 | 1.17 | 1.07 | 0.944 | 0.924 | 0.877 | 0.495 | 0.449 | 0.369 | 0.419 | 0.421 | 0.829 | 0.924 | 0.524 | 0.849 | 0.841 | 0.651 | 0.983 | 1.1 | 0.944 | 0.839
NCI-H727 | 0.814 | 1.09 | 0.751 | 1.21 | 0.719 | 1.24 | 1.17 | 1.12 | 1.25 | 1.05 | 0.802 | 0.825 | 0.634 | 0.844 | 0.773 | 0.154 | 0.272 | 0.218 | 0.332 | 0.264
NCI-H1993 | 0.816 | 0.887 | 0.76 | 0.802 | 0.84 | 0.983 | 1.09 | 0.516 | 0.921 | 0.487 | 0.863 | 0.887 | 0.869 | 0.754 | 0.665 | 0.824 | 0.697 | 0.815 | 0.698 | 0.692
EMC-BAC-2 | 0.91 | 0.953 | 0.827 | 0.905 | 0.833 | 0.639 | 0.42 | 0.419 | 0.496 | 0.633 | 0.792 | 0.777 | 0.961 | 0.903 | 0.888 | 0.541 | 0.778 | 0.794 | 0.826 | 0.844
NCI-H2087 | 1.15 | 1.06 | 1.13 | 1.11 | 1.18 | 0.592 | 0.667 | 0.614 | 0.781 | 0.204 | 0.965 | 0.952 | 1.21 | 0.927 | 0.644 | 0.886 | 0.889 | 1.02 | 0.767 | 0.635
LXF-289 | 0.945 | 0.901 | 0.906 | 0.96 | 0.943 | 0.878 | 0.759 | 0.781 | 0.783 | 0.764 | 0.822 | 0.862 | 0.949 | 0.899 | 0.874 | 0.917 | 0.994 | 0.976 | 0.955 | 0.931
NCI-H661 | 0.44 | 0.433 | 0.39 | 0.367 | 0.391 | 0.81 | 0.779 | 0.828 | 0.876 | 0.814 | 0.731 | 0.503 | 0.593 | 0.417 | 0.586 | 0.632 | 0.515 | 0.637 | 0.505 | 0.561
PC-3 [JPC-3] | 0.455 | 0.49 | 0.439 | 0.44 | 0.36 | 1.04 | 0.952 | 0.841 | 0.86 | 0.747 | 0.423 | 0.502 | 0.501 | 0.471 | 0.451 | 0.876 | 0.923 | 0.951 | 0.981 | 0.944
HCC-366 | 1.01 | 1.02 | 0.999 | 1.03 | 0.987 | 0.391 | 0.36 | 0.33 | 0.293 | 0.325 | 1.01 | 1.02 | 1.16 | 0.993 | 0.381 | 0.675 | 0.513 | 0.677 | 0.707 | 0.567
NCI-H1651 | 0.707 | 1 | 0.577 | 0.825 | 0.868 | 0.577 | 0.416 | 0.552 | 0.617 | 0.593 | 0.9 | 0.767 | 0.819 | 0.85 | 0.725 | 0.995 | 0.977 | 0.987 | 0.903 | 0.895
NCI-H1355 | 1.06 | 1.1 | 0.751 | 0.972 | 0.888 | 0.628 | 0.662 | 0.512 | 0.612 | 0.548 | 0.783 | 1.05 | 0.991 | 1.04 | 0.975 | 0.8 | 0.801 | 0.824 | 0.881 | 0.72
LC-2-ad | 1.04 | 0.963 | 0.949 | 1.05 | 0.868 | 0.798 | 0.702 | 0.683 | 0.791 | 0.703 | 0.747 | 1.01 | 1.01 | 0.27 | 0.179 | 0.811 | 0.83 | 0.819 | 0.24 | 0.188
NCI-H1944 | 0.969 | 0.857 | 0.637 | 0.826 | 0.668 | 0.68 | 0.526 | 0.529 | 0.5 | 0.48 | 0.866 | 0.766 | 0.846 | 0.834 | 0.839 | 1.09 | 1.02 | 1.17 | 1.19 | 1.21
